The assay has as its target Sepiapterin reductase (Homo sapiens, UniProt P35270). Kind of assay: Inhibition of sepiapterin reductase (unknown origin).

A word on the pIC50: it is the negative decadic logarithm of the IC50, by convention in mol/L. Low readings indicate a high IC50, high ones a low IC50.

Sequence of Sepiapterin reductase (P35270 whole entry): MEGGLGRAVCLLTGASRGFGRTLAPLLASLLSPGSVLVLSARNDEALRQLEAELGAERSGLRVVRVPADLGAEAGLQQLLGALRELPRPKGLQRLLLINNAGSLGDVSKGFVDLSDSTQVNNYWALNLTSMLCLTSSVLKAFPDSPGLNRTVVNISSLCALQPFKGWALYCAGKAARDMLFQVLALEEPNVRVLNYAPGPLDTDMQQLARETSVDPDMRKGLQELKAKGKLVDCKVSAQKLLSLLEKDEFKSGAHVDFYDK

Consider `Cc1nn(C)c2ncc(C(=O)c3ccccc3O)cc12`, for which, where the note is “read-out: IC50”, the IC50 is 80 nM.
The same measure, in the same setting: the figure for `Cc1n[nH]c2ncc(C(=O)c3cc(F)ccc3O)cc12` is 50 nM; for `COc1ccc(O)c(C(=O)c2cnc3c(c2)c(C)nn3C)c1` it is 2500 nM; for `Cc1nn(CCO)c2ncc(C(=O)c3cc(F)ccc3O)cc12` it is 50 nM.
As to `COc1cc(C(F)(F)F)ccc1-c1nc(Cl)cc2cc(S(=O)(=O)Nc3nccs3)ccc12`, the IC50 (read-out: pIC50 (converted)) was 1780 nM.
Same read-out and setting: the figure for `COc1cc(C(F)(F)F)ccc1-c1nccc2cc(S(=O)(=O)Nc3ccc(F)cn3)ccc12` is 1780 nM.
As for `CC1(C)C=Cc2c(c(CCO)c3occ(-c4ccc(O)c(O)c4)c(=O)c3c2O)O1`, the IC50 (read-out: pIC50 (converted)) was 6170 nM.
`Cc1nn(C2CCOC2)c2ncc(C(=O)c3ccccc3O)cc12` (stereo not given): for the setting “read-out: IC50”, the IC50 was determined as 30 nM.
The same measure, in the same setting: as for `COc1ccc(O)c(C(=O)c2cnc3c(c2)c(C)nn3-c2cccc(Cl)c2)c1`, the figure is more than 19000 nM.
Consider `CCOC(=O)C1=C(O)C2(CCC(=CC(=O)OC)CC2)c2ccc(Cl)cc2C1=O` (stereo not given), for which the negative-log IC50 (pIC50) was 5.39.
For `Cc1ccc(O)c(C(=O)c2cnc3c(c2)c(C)nn3-c2ccccn2)c1`, the IC50 (read-out: IC50) came to 1720 nM.
Same read-out and setting: the figure for `Cc1nn(-c2ccccn2)c2ncc(C(=O)N(C)C)cc12` is more than 19000 nM.
With `O=C(Nc1nc2ccc(CN3CCCCC3)cc2n1[C@H]1CC[C@@H](C(=O)O)CC1)c1ccc(F)cc1`, the IC50 (read-out: pIC50 (converted)) was 3020 nM.
Still for that read-out and setting: as for `Cc1ccc(C(=O)c2ccccc2O)c(O)n1`, the figure is 8130 nM; as for `CCn1ncc(C(=O)c2cc(Cl)c(N(C)S(=O)(=O)N(C)C)cc2OC)c1O`, 57.5 nM; as for `CC1(C)C(O)=C(C(N)=O)C(=O)c2cc(C(=O)NCCc3ccccc3)ccc21`, 3240 nM.
As to `Cc1ccc(-n2nc(C)c3cc(C(=O)c4cc(C)ccc4O)cnc32)cc1`, the IC50 (read-out: IC50) is more than 19000 nM.
Consider `COc1ccc(O)c(C(=O)c2cnc3c(c2)c(C)nn3-c2ccccc2)c1`, for which, where the note is “read-out: IC50”, the IC50 was found to be 17000 nM.
For `O=C(Nc1cccc(C(F)(F)F)c1)N1CCC(S(=O)(=O)Nc2nccs2)CC1`, the IC50 (read-out: pIC50 (converted)) was 9550 nM.
On to `Cc1ccc(O)c(C(=O)c2cnc3c(c2)c(C)nn3-c2ccc(F)cc2)c1`, for which, under “read-out: IC50”, the IC50 was more than 19000 nM.
On the same count and under the same terms, as for `Cc1nn(-c2ccccn2)c2ncc(C(=O)O)cc12`, the figure is more than 19000 nM; as for `Cc1nn(-c2ccc(F)cc2)c2ncc(C(=O)c3ccccc3O)cc12`, 820 nM.
For `O=C(CN(c1cccc(Cl)c1)S(=O)(=O)c1cccnc1)N[C@H]1CC[C@H](n2c(=O)[nH]c3ccccc32)CC1`, where the note is “read-out: pIC50 (converted)”, the IC50 was 9120 nM.
On to `Cn1nc(-c2cccnc2)c2c1NC(=O)C[C@@H]2c1ccc2cccc(O)c2n1`, for which, for the setting “read-out: pIC50 (converted)”, the IC50 was 4370 nM.
With `Cc1nn(-c2ncccn2)c2ncc(C(=O)c3ccccc3O)cc12`, the IC50 (read-out: IC50) came to 140 nM.
For `Cc1cc(C(=O)C2C(=O)CC(C)CC2=O)c(C)c2c1S(=O)(=O)CCc1cn(C)nc1-2` (stereo not given), the IC50 (read-out: pIC50 (converted)) is 324 nM.
Same read-out and setting: as for `FC(F)(F)Oc1cccc(-n2nnnc2N2CCN(c3ncnc4sc5c(c34)CCC5)CC2)c1`, the figure is 7590 nM.
Take `Cc1nn(-c2ccccc2)c2ncc(C(=O)c3cc(F)ccc3O)cc12`: the IC50 (read-out: IC50) was 180 nM.
On the same count and under the same terms, the figure for `Cc1nn(CCO)c2ncc(C(=O)c3cc(Cl)ccc3O)cc12` is 40 nM.
For `CCOC(=O)c1c(C)n(C)c2cc(Nc3ccccc3)c(O)cc12`, where the note is “read-out: pIC50 (converted)”, the IC50 is 6760 nM.
Turning to `Cc1nn(C2CCCS2(=O)=O)c2ncc(C(=O)c3cc(F)ccc3O)cc12` (stereo not given), for the setting “read-out: IC50”, the IC50 came out at 20 nM.
Consider `Cc1nn(-c2ccccc2)c2ncc(C(=O)c3ccccc3O)cc12`, for which, under “read-out: IC50”, the IC50 turned out to be 860 nM.
Same read-out and setting: the figure for `COc1ccc(O)c(C(=O)c2cnc3c(c2)c(C)nn3-c2cccc(C)c2)c1` is more than 19000 nM.
Same read-out and setting: the figure for `Cc1nn(C2CCOCC2)c2ncc(C(=O)c3ccccc3O)cc12` is 20 nM.
For the compound `Cc1nn(-c2ccccn2)c2ncc(C(=O)c3ccccc3O)cc12`, the IC50 by setting is: (read-out: IC50) 180 nM; (read-out: pIC50 (converted)) 66.1 nM.
Turning to `O=S(=O)(Nc1ccccn1)c1ccc2c(c1)OCCO2`, the IC50 (read-out: pIC50 (converted)) was 603 nM.
Consider `Cc1nn(-c2ccccn2)c2ncc(C(=O)c3cc(Cl)ccc3O)cc12`, for which the IC50 (read-out: IC50) stood at 80 nM.
On to `O=S(=O)(Nc1nccs1)c1ccc2c(c1)OCCN2CCc1ccncc1`, for which, for the setting “read-out: pIC50 (converted)”, the IC50 was 575 nM.
With `Cc1ccnc(-n2nc(C)c3cc(C(=O)c4ccccc4O)cnc32)c1`, for the setting “read-out: IC50”, the IC50 was determined as 50 nM.
As for `Cc1nn(-c2ccncn2)c2ncc(C(=O)c3ccccc3O)cc12`, the IC50 (read-out: IC50) was 140 nM.
For the compound `O=C(O)c1ccc2c(C(c3ccc(Cl)cc3Cl)c3c[nH]c4cc(C(=O)O)ccc34)c[nH]c2c1`, the IC50 (read-out: pIC50 (converted)) is 9550 nM.
Still for that read-out and setting: the figure for `CCOC(=O)CNCc1c(C(=O)CC)c2cc(OC)c(Br)cc2n1C` is 7940 nM.
Consider `Cc1nn(-c2ccccc2F)c2ncc(C(=O)c3ccccc3O)cc12`, for which the IC50 (read-out: IC50) was found to be 50 nM.
In the case of `CCCc1cc(C(=O)N2CCC(C3Nc4ccccc4S(=O)(=O)N3)CC2)[nH]n1` (stereo not given), under “read-out: pIC50 (converted)”, the IC50 was 2950 nM.
Regarding `Cc1nn(-c2ccccn2)c2ncc(C(=O)c3cc(F)ccc3O)cc12`, the IC50 (read-out: IC50) came out at 40 nM.
On the same count and under the same terms, the figure for `Cc1cccc(-n2nc(C)c3cc(C(=O)c4ccccc4O)cnc32)c1` is 1360 nM; for `Cc1ccc(O)c(C(=O)c2cnc3c(c2)c(C)nn3C)c1` it is 970 nM.
The same measure, in the same setting: as for `Cc1ccc(O)c(C(=O)c2cnc3c(c2)c(C)nn3-c2ccccc2)c1`, the figure is more than 19000 nM; as for `Cc1nn(C)c2ncc(C(=O)c3cc(F)ccc3O)cc12`, 40 nM.

Values taken from ChEMBL document CHEMBL4602609, “Virtual screening to identify potent sepiapterin reductase inhibitors” (Bioorg Med Chem Lett, 2020).
